# Literature values, collected in patent EP1180016B1, “METHODS AND COMPOSITIONS FOR NON-VIRAL GENE THERAPY FOR TREATMENT OF HYPERPROLIFERATIVE DISEASES” (Introgen Therapeutics, Inc., priority 1999, dated 2000).
# Where a name gives a salt, the structure may show the parent alone. *1 amine or outer side, *2 acyl side, *3 side chain or, on linkers, in order; H or OH if unused. Where a SMILES comes first, the peptide text is derived from it. Bridges are numbered along the chain shown (N, C = ends). Roman numbers before positions name the chains, in order. [ ]: non-standard residue; d: D form. Actinocin(9to1) = Cc1c2oc3c(C)ccc(C(=O)[*:1])c3nc-2c(C(=O)[*:2])c(N)c1=O; NMeV = CN[C@H](C(=O)O)C(C)C; Sar = CNCC(=O)O
# Experiments:
# [1] = physiological pH
# [2] = test system: chronic myelogenous leukemia; details: previously untreated chronic myelogenous leukemia
smiles,measurement,setting,value
"O=NN(CCCl)C(=O)NC1CCCCC1 [Lomustine, 1-(2-chloro-ethyl)-3-cyclohexyl-1 nitrosourea]",radioactivity excreted in the form of degradation products within 24 hours,"oral radioactive lomustine, 30 mg/m^2 to 100 mg/m^2",about half
same,ionization,[1],relatively unionized
"O=C(O)CCCc1ccc(N(CCCl)CCCl)cc1 [Chlorambucil, 4-[bis(2-chlorethyl)amino] benzenebutanoic acid]",terminal half-life of the parent drug,single oral doses of 0.6-[…],1.5 h
"CS(=O)(=O)OCCCCOS(C)(=O)=O [Busulfan, 1,4-butanediol dimethanesulfonate]",adults obtaining hematologic remission with regression or stabilization of organomegaly,[2],Approximately 90%
"COc1cccc2c1C(=O)c1c(O)c3c(c(O)c1C2=O)C[C@@](O)(C(C)=O)C[C@@H]3O[C@H]1C[C@H](N)[C@H](O)[C@H](C)O1 [Daunorubicin, 5,12-Naphthacenedione, (8S-cis)-8-acetyl-10-[(3-amino-2,3,6-trideoxy-a-L-lyxo-hexanopyranosyl)oxy]-7,8,9,10-tetrahydro-6,8,11-trihydroxy-10-methoxy-, hydrochloride]",half-life of distribution,intravenous,0.75 h
"Cc1c2oc3c(C)ccc(C(=O)N[C@@H]4C(=O)N[C@H](C(C)C)C(=O)N5CCC[C@H]5C(=O)N(C)CC(=O)N(C)[C@@H](C(C)C)C(=O)O[C@@H]4C)c3nc-2c(C(=O)N[C@@H]2C(=O)N[C@H](C(C)C)C(=O)N3CCC[C@H]3C(=O)N(C)CC(=O)N(C)[C@@H](C(C)C)C(=O)O[C@@H]2C)c(N)c1=O [Actinomycin D] (I: T[dV]P[Sar][NMeV] / II: T[dV]P[Sar][NMeV]; ester I:1-I:C, II:1-II:C; linker I:N-II:N via Actinocin(9to1))",dose excreted intact into the bile,in vivo,Half
